Like-named read-outs stand apart in the source and are kept apart here. Where a SMILES comes first, the peptide text is derived from it.

The test system of assay [1] is Escherichia coli ATCC 25922. The experiment in a line: microbe, parasite or virus in culture. In kind it is cell-based. In outline: (§1)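 MIC read visually as the lowest peptide concentration with no growth versus negative control, after 20–24 h at 35°C. Peptides were tested in duplicate 64-0.125μg/mL (final) in MHB or cation-supplemented MH II B, some with 10% lysed horse blood; inoculum 5 x 10^5 CFU/mL.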

The subject of assay [2] is Escherichia coli clinical isolate - animal. As to the kind of experiment: microbe, parasite or virus in culture. In kind it is cell-based. In a few lines: as §1
For assay [3], the system named is Pseudomonas aeruginosa ATCC 27853. As to the kind of experiment: microbe, parasite or virus in culture. The class given is cell-based. The note with it: ATCC 27853; read-out: MIC P. aeruginosa ATCC. In a few lines:
as §1

Assay [4] deals with Pseudomonas aeruginosa clinical isolate - animal. As to the kind of experiment: microbe, parasite or virus in culture. The note with it: clinical isolate - animal; read-out: MIC P. aeruginosa. In kind it is cell-based. In outline:
as §1

Assay [5] relates to Staphylococcus aureus ATCC 29213. The experiment in a line: microbe, parasite or virus in culture. The class given is cell-based. The note with it: ATCC 29213; read-out: MIC S. aureus ATCC. In a few lines:
as §1

In assay [6] the test system is Staphylococcus aureus clinical isolate - animal. As to the kind of experiment: microbe, parasite or virus in culture. The class given is cell-based. The note with it: clinical isolate - animal; read-out: MIC S. aureus. In outline: as §1
Assay [7] has as its system Streptococcus agalactiae ATCC 12386. The experiment in a line: microbe, parasite or virus in culture. In kind it is cell-based. The note with it: ATCC 12386; read-out: MIC S. agalactiae ATCC. In a few lines: (§2)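 MIC defined as lowest peptide level preventing visible growth after 20–24 h at 35°C. Candida tested in RPMI-1640 MOPS; bacteria in Mueller Hinton broth, optionally with 10% lysed horse blood and/or divalent cations. Final peptide range 64-0.125 μg/mL, starting inoculum 5 x 10^5 CFU/mL, per CLSI M07-A/M26A.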

In assay [8] the test system is Streptococcus agalactiae Clinical isolate - animal. As to the kind of experiment: microbe, parasite or virus in culture. The class given is cell-based. The note with it: clinical isolate - animal; read-out: MIC S. agalactiae. In outline:
as §2

The subject of assay [9] is Streptococcus pneumoniae ATCC 49619. As to the kind of experiment: microbe, parasite or virus in culture. The class given is cell-based. The note with it: ATCC 49619; read-out: MIC S. pneumoniae ATCC. In a few lines:
as §2

Assay [10] has as its system six bacteria (S. aureus, E. coli, P. aeruginosa; ATCC and clinical isolate). In kind it is cell-based. The note with it: synthesized mature peptide. In outline: as §1
Assay [11] concerns three fungi (Candida krusei, Candida parapsilosis, Candida albicans). As to the kind of experiment: Antifungal screening, summary over the panel of fungi (broth microdilution). The class given is cell-based. The note with it: synthesized mature peptide. In a few lines:
as §2
(In general: Dilution methods test growth across graded concentrations, often in twofold steps.)

The test system of assay [12] is panel of 11 bacteria and three fungi. As to the kind of experiment: Antimicrobial screening phases I and II, summary over all strains. The class given is cell-based. The note with it: active = MIC ≤64µg/mL against the strains tested. The method, then: Antimicrobial testing of 78 cathelicidin MPs was performed in two phases as outlined in Figure 1 . In phase I, 40 peptides (27 extant and 13 ancestral) were selected for testing based on rank (outlined above) and similarity to published marsupial cathelicidins with known antimicrobial activity ([33], [41]–[43]). These peptides were tested against nine bacteria (Staphylococcus aureus ATCC 29213 and clinical isolate, Escherichia coli ATCC 25922 and clinical isolate, Pseudomonas aeruginosa ATCC 27853 and clinical isolate, Streptococcus agalactiae ATCC 12386 and clinical isolate, Streptococcus pneumoniae ATCC 49619) and three fungi (Candida krusei ATCC 6258, Candida parapsilosis ATCC 22019, and Candida albicans clinical isolate). Details regarding these strains are available in Supplementary Table 4 . The antimicrobial activity of cathelicidins was determined as the minimum inhibitory concentration (MIC), which was the lowest concentration of cathelicidin that prevented visible bacterial or fungal growth, relative to the negative control. […]
Antimicrobial activity was determined using a broth microdilution susceptibility assay in 96 well polypropylene plates according to Clinical Laboratory Standards Institute guidelines M07-A and M26A as described previously ([33], [42], [43]). […]

The test system of assay [13] is six bacteria (S. aureus, E. coli, P. aeruginosa; ATCC and clinical isolate). Also noted: method as in 4 sources, ref Peel et al 2016 ||| ref Peel et al 2021 ||| ref Wang et al 2011 ||| ref Peel et al 2017. The note with it: mature peptide; Y/N summary from earlier study; ref Peel et al 2021; cited from earlier work.
Assay [14] has as its system three fungi (Candida krusei, Candida parapsilosis, Candida albicans). Also noted: method as in 4 sources, ref Peel et al 2016 ||| ref Peel et al 2021 ||| ref Wang et al 2011 ||| ref Peel et al 2017. The note with it: mature peptide; Y/N summary from earlier study; ref Peel et al 2021; cited from earlier work.
Assay [15] has as its system Chlamydia. The note with it: in vitro; cited from earlier work. An excerpt:
Many marsupial and monotreme cathelicidins were closely related to the classic cathelicidins found in eutherians. These cathelicidins sit within clade II in the phylogenetic tree, sister to eutherians but were not orthologous ( Figure 3 ). Classic marsupial cathelicidins were encoded in cluster A in the genome of all marsupials and monotremes studied, syntenic to the single cathelicidin gene/cluster in eutherians ( Figure 2 ). Many of these were antimicrobial and bactericidal, with MICs equal to or less than eutherian peptides such as cow BMAP-27 and -28 ([87]) and human LL-37, including again ...

The test system of assay [16] is bacterial and fungal infections in chemotherapy patients. The note with it: human, in vivo; cited from earlier work.
The conditions of assay [17]: in vivo; cited from earlier work.

As to `CC[C@H](C)[C@H](NC(=O)[C@H](CCCNC(=N)N)NC(=O)[C@H](CCCNC(=N)N)NC(=O)[C@@H]1CCCN1C(=O)[C@H](CC(N)=O)NC(=O)[C@H](CS)NC(=O)[C@H](CCCCN)NC(=O)[C@H](CCCNC(=N)N)NC(=O)[C@@H](NC(=O)[C@H](CC(C)C)NC(=O)[C@H](CC(C)C)NC(=O)[C@H](CS)NC(=O)[C@H](CCCNC(=N)N)NC(=O)[C@H](CCCCN)NC(=O)[C@H](CCCNC(=N)N)NC(=O)[C@H](CCCCN)NC(=O)[C@H](Cc1ccccc1)NC(=O)[C@H](CCCNC(=N)N)NC(=O)[C@H](CC(C)C)NC(=O)[C@@H]1CCCN1C(=O)[C@H](CCC(=O)O)NC(=O)[C@@H]1CCCN1)[C@@H](C)O)C(=O)N[C@H](C(=O)N[C@@H](Cc1ccccc1)C(=O)N[C@@H](CO)C(=O)N[C@@H](CC(C)C)C(=O)N[C@@H](CC(C)C)C(=O)N[C@@H](CCCCN)C(=O)NCC(=O)N[C@@H](CCCCN)C(=O)O)[C@@H](C)O` [TrvuCath2] (H-PEPLRFKRKRCLLTRKCNPRRITFSLLKGK-OH; N-terminus and C-terminus assumed), the “MBC E. coli ATCC” value in assay [1] (ATCC 25922) is reported as 17.5 (17.5)^17.5 µM; in [1] (value in brackets, 99.9% reduction in CFU/mL) it was 64 (64)^64 µg/mL. The “MIC E. coli ATCC” value was 17.5 (17.5)^17.5 µM in assay [1] (ATCC 25922) and 64 (64)^64 µg/mL in assay [1] (MHB without cations, 5 x 10^5 CFU/mL, 35°C 20–24 hours, duplicate). Moreover, the “MIC in the presence of cations E. coli ATCC” value is on record as 17.5 (17.5)^17.5 µM in assay [1] (ATCC 25922) and 64 (64)^64 µg/mL in [1] (superscript value, cation-adjusted Mueller Hinton broth). Moreover, the “MBC E. coli” value in [2] (clinical isolate - animal) is listed as 17.5 (17.5)^17.5 µM; in [2] (clinical isolate, value in brackets, 99.9% reduction in CFU/mL), 64 (64)^64 µg/mL. Besides, the “MIC E. coli” value is recorded as 17.5 (17.5)^17.5 µM in assay [2] (clinical isolate - animal) and 64 (64)^64 µg/mL in assay [2] (clinical isolate, MHB without cations, 5 x 10^5 CFU/mL, 35°C 20–24 hours, duplicate). In addition, the “MIC in the presence of cations E. coli” value in assay [2] (clinical isolate - animal) is recorded as 17.5 (17.5)^17.5 µM; in assay [2] (clinical isolate, superscript value, cation-adjusted Mueller Hinton broth), 64 (64)^64 µg/mL. Further, the MIC in [3], in [4], in assay [5], in assay [6], in assay [7] and in assay [8] was greater than 17.5 µM each time. Further, the MIC in assay [9] was greater than 17.5 µM. Besides, in assay [10] (broth microdilution screening, phase I or II, Y/N summary over the bacteria tested), the “Antibacterial (MIC <64ug/mL)” value was “Y (Antibacterial (MIC <64ug/mL))”. The “Antifungal (MIC <64ug/mL)” value in assay [11] (broth microdilution screening, phase I, Y/N summary over the fungi tested) is given as “N (Antifungal (MIC <64ug/mL))”. Moreover, the “Antimicrobial activity in the assays” value in [12] is on record as “displayed activity”.
Turning to “KRGGIWKLIRPLGRGAGRILRHFHIDFCGNC [PhciCath5, koala cathelicidin, reference compound]”, in [13], the “Antibacterial (MIC <64ug/mL)” value is on record as “Y (Peel et al 2021) (Antibacterial (MIC <64ug/mL))”. In addition, the “Antifungal (MIC <64ug/mL)” value in [14] was “Y (Peel et al 2021) (Antifungal (MIC <64ug/mL))”. Moreover, the “Killing of Chlamydia” value in [15] is reported as “killed Chlamydia in vitro”.
On to “RFKRSLSDGVIDTSSLPPRIRDIYLQAKYDIISRILRN [MAP1, marsupial ancestral peptide 1, predicted ancestral cathelicidin of the NGP clade]”, for which, in assay [10] (antimicrobial screening Phase I, Y/N summary over bacteria tested, broth microdilution), the “Antibacterial (MIC <64ug/mL)” value is on record as “N (Antibacterial (MIC <64ug/mL))”. For the same molecule, the “Antifungal (MIC <64ug/mL)” value in [11] (antimicrobial screening Phase I, Y/N summary over fungi tested, broth microdilution) is “N (Antifungal (MIC <64ug/mL))”. The “Antimicrobial activity in the assays” value in assay [12] is recorded as “none displayed antimicrobial activity”.
With iseganan, the “Bacterial and fungal infections in oral mucositis patients” value in assay [16] is “significantly reducing bacterial and fungal infections”. For the same molecule, in assay [17], the “Clinical outcomes in ventilator-associated pneumonia” value is recorded as “no difference was observed between treated or placebo groups”.

The record behind these values is publication PMC12006171, “Marsupial cathelicidins: characterization, antimicrobial activity and evolution in this unique mammalian lineage” (Frontiers in Immunology, 2025).
